Laboratory results taken from patent US8192962B2, “Processes for detecting toxic substances” (Daikin Industries, Ltd., priority 2001, dated 2012).

Tested on: Stress protein genes
Experiment: DNA chip mRNA expression in yeast, stress protein genes (Table 6)
Assay type: cell-based, Saccharomyces cerevisiae S288C
Description: Yeast (Saccharomyces cerevisiae S288C (α SUC2mal mel gap2 CUP1)) were incubated at 25° C. on YPD medium (yeast extract 1%, polypepton 2%, glucose 2%). One of toxic chemical substances was added to the cells at logarithmic growth phase, and the cells were further incubated for two hours. Cells were cultured without any chemical substance in the same condition, and were used as control. Concentrations of the chemical substances were defined to inhibit the growth of the yeast but not lead to death.
After completion of the incubation, the culture was centrifuged to collect the cells. To the cells, sodium acetate buffer (50 mM sodium acetate, 10 mM EDTA, 1% SDS) was added, and the mixture was shaken at 65° C. for five minutes, followed by returning to room temperature, and obtaining the supernatant, of which the procedures were repeated two times. To the supernatant, ½ amount of a solution of phenol/chloroform was added, and the mixture was centrifuged to give a supernatant, which was added with an equal amount of chloroform, and the mixture was centrifuged to give a supernatant. To the supernatant, an equal amount of isopropanol containing 0.3 M sodium acetate was added, and the mixture was allowed to stand at room temperature for 30 minutes, after which the mixture was centrifuged to give a sediment of the whole RNAs. Seventy % ethanol was added to the sediment, and the mixture was again centrifuged to give a sediment, which was then dried and dissolved in water. mRNA was isolated from the whole RNAs as followings. In view of the fact that a poly A chain is attached to the 3′ terminus of mRNA, a polynucleotide having a poly T structure which was immobilized on the surface of latex beads was used to trap the mRNA, and then the mRNA was washed and eluted with spine column (Oligotex-dT30<Super>mRNA Purification Kit, Takara). Reverse transcription of the mRNA was conducted with a reverse transcriptase (Super Script II Reverse Transcriptase; catalogue No. 18064-014, GibcoBRL) using fluorescence-labeled nucleotides to give cDNAs that were introduced with Cy3-dUTP or Cy5-dUTP during the reverse transcription.
The labeled cDNAs were dissolved in TE buffer (10mM Tris-HCl/1 mM EDTA, pH8.0), and the solution was dropped on the DNA chip containing the whole genes of yeast (DNA Chip Research Inc. Japan) so that the cDNAs were hybridized on the DNA chip at 65° C. for over 12 hours. The fluoresces intensity of the DNA chip was read with a scanner, and the ratio relative to the fluorescence intensity resulting from the absence of chemical substance was estimated as the following, which is shown in Tables 1 to 9: […]

[Cl][Hg][Cl] [(3), HgCl2]
The level of expressed mRNA in the presence of chemical substance/The level of expressed mRNA in the absence of chemical substance (yeast gene YIL033C): 3.3 | The level of expressed mRNA in the presence of chemical substance/The level of expressed mRNA in the absence of chemical substance (yeast gene YIR037W): 2.0 | The level of expressed mRNA in the presence of chemical substance/The level of expressed mRNA in the absence of chemical substance (yeast gene YIR038C): 4.6 | The level of expressed mRNA in the presence of chemical substance/The level of expressed mRNA in the absence of chemical substance (yeast gene YJL128C): 0.4 | The level of expressed mRNA in the presence of chemical substance/The level of expressed mRNA in the absence of chemical substance (yeast gene YJL158C): 2.8 | The level of expressed mRNA in the presence of chemical substance/The level of expressed mRNA in the absence of chemical substance (yeast gene YJL159W): 2.8 | The level of expressed mRNA in the presence of chemical substance/The level of expressed mRNA in the absence of chemical substance (yeast gene YJL165C): 1.3 | The level of expressed mRNA in the presence of chemical substance/The level of expressed mRNA in the absence of chemical substance (yeast gene YJR045C): 3.9 | The level of expressed mRNA in the presence of chemical substance/The level of expressed mRNA in the absence of chemical substance (yeast gene YJR090C): 0.6 | The level of expressed mRNA in the presence of chemical substance/The level of expressed mRNA in the absence of chemical substance (yeast gene YKL161C): 0.9 | The level of expressed mRNA in the presence of chemical substance/The level of expressed mRNA in the absence of chemical substance (yeast gene YKL163W): 3.4 | The level of expressed mRNA in the presence of chemical substance/The level of expressed mRNA in the absence of chemical substance (yeast gene YKL164C): 2.5 | The level of expressed mRNA in the presence of chemical substance/The level of expressed mRNA in the absence of chemical substance (yeast gene YKL210W): 2.7 | The level of expressed mRNA in the presence of chemical substance/The level of expressed mRNA in the absence of chemical substance (yeast gene YKR053C): 1.0 | The level of expressed mRNA in the presence of chemical substance/The level of expressed mRNA in the absence of chemical substance (yeast gene YLL024C): 5.3 | The level of expressed mRNA in the presence of chemical substance/The level of expressed mRNA in the absence of chemical substance (yeast gene YLL026W): 7.7 | The level of expressed mRNA in the presence of chemical substance/The level of expressed mRNA in the absence of chemical substance (yeast gene YLL039C): 1.7 | The level of expressed mRNA in the presence of chemical substance/The level of expressed mRNA in the absence of chemical substance (yeast gene YLL060C): 2.3 | The level of expressed mRNA in the presence of chemical substance/The level of expressed mRNA in the absence of chemical substance (yeast gene YLR006C): 0.9 | The level of expressed mRNA in the presence of chemical substance/The level of expressed mRNA in the absence of chemical substance (yeast gene YLR109W): 6.0 | The level of expressed mRNA in the presence of chemical substance/The level of expressed mRNA in the absence of chemical substance (yeast gene YLR259C): 3.1 | The level of expressed mRNA in the presence of chemical substance/The level of expressed mRNA in the absence of chemical substance (yeast gene YML007W): 0.9 | The level of expressed mRNA in the presence of chemical substance/The level of expressed mRNA in the absence of chemical substance (yeast gene YML070W): 2.5 | The level of expressed mRNA in the presence of chemical substance/The level of expressed mRNA in the absence of chemical substance (yeast gene YMR021C): 0.9 | The level of expressed mRNA in the presence of chemical substance/The level of expressed mRNA in the absence of chemical substance (yeast gene YMR173W): 3.0 | The level of expressed mRNA in the presence of chemical substance/The level of expressed mRNA in the absence of chemical substance (yeast gene YMR186W): 2.0 | The level of expressed mRNA in the presence of chemical substance/The level of expressed mRNA in the absence of chemical substance (yeast gene YNL064C): 1.8 | The level of expressed mRNA in the presence of chemical substance/The level of expressed mRNA in the absence of chemical substance (yeast gene YNL160W): 10.6 | The level of expressed mRNA in the presence of chemical substance/The level of expressed mRNA in the absence of chemical substance (yeast gene YNL241C): 4.3 | The level of expressed mRNA in the presence of chemical substance/The level of expressed mRNA in the absence of chemical substance (yeast gene YNR076W): 2.5 | The level of expressed mRNA in the presence of chemical substance/The level of expressed mRNA in the absence of chemical substance (yeast gene YOL064C): 1.1 | The level of expressed mRNA in the presence of chemical substance/The level of expressed mRNA in the absence of chemical substance (yeast gene YOL161C): 2.4 | The level of expressed mRNA in the presence of chemical substance/The level of expressed mRNA in the absence of chemical substance (yeast gene YOR008C): 1.4 | The level of expressed mRNA in the presence of chemical substance/The level of expressed mRNA in the absence of chemical substance (yeast gene YOR009W): 3.2 | The level of expressed mRNA in the presence of chemical substance/The level of expressed mRNA in the absence of chemical substance (yeast gene YOR010C): 3.2 | The level of expressed mRNA in the presence of chemical substance/The level of expressed mRNA in the absence of chemical substance (yeast gene YOR027W): 4.4 | The level of expressed mRNA in the presence of chemical substance/The level of expressed mRNA in the absence of chemical substance (yeast gene YOR208W): 1.2 | The level of expressed mRNA in the presence of chemical substance/The level of expressed mRNA in the absence of chemical substance (yeast gene YPL059W): 2.6 | The level of expressed mRNA in the presence of chemical substance/The level of expressed mRNA in the absence of chemical substance (yeast gene YPL106C): 2.4 | The level of expressed mRNA in the presence of chemical substance/The level of expressed mRNA in the absence of chemical substance (yeast gene YPL140C): 0.9 | The level of expressed mRNA in the presence of chemical substance/The level of expressed mRNA in the absence of chemical substance (yeast gene YPL194W): 0.4 | The level of expressed mRNA in the presence of chemical substance/The level of expressed mRNA in the absence of chemical substance (yeast gene YPL223C): 1.2 | The level of expressed mRNA in the presence of chemical substance/The level of expressed mRNA in the absence of chemical substance (yeast gene YPL240C): 2.4 | The level of expressed mRNA in the presence of chemical substance/The level of expressed mRNA in the absence of chemical substance (yeast gene YPR005C): 1.5 | The level of expressed mRNA in the presence of chemical substance/The level of expressed mRNA in the absence of chemical substance (yeast gene YPR026W): 5.0
